ChEMBL document CHEMBL1157802, “5-Functionalized indazoles as glucocorticoid receptor agonists” (Bioorg Med Chem Lett, 2010)
One block for each compound: values may come before it.

Tests used:
[1] = target: T1, Glucocorticoid receptor (Homo sapiens, UniProt P04150); test: Agonist activity at glucocorticoid receptor in human MDA-kb2 cells transfected with MMTV-LUC assessed as induction of MMTV-LTR/promoter linked LUC gene by luciferase transactivation assay; type: functional, cell-based
T1 sequence (P04150 whole entry): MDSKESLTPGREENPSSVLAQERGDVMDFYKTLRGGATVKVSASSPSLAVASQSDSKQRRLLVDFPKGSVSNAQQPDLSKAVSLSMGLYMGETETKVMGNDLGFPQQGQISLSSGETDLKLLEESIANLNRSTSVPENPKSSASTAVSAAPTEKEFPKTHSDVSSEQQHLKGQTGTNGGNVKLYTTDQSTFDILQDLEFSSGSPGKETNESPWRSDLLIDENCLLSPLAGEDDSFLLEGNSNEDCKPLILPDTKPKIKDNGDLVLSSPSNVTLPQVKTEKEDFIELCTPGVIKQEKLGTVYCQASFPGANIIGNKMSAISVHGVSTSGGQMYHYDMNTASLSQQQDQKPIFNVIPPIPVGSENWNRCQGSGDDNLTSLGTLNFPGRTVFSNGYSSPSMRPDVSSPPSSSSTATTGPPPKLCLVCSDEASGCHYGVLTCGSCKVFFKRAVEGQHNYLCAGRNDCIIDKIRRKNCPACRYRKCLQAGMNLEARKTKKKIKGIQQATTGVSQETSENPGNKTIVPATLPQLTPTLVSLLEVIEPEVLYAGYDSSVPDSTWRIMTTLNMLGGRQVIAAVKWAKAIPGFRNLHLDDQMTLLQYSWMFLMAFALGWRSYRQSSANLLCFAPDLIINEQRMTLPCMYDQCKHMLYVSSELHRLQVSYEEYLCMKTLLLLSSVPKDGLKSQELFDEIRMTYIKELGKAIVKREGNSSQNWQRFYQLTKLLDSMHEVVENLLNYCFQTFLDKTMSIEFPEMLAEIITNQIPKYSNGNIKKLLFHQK

[2] = target: hERG (KCNH2) (Homo sapiens, UniProt Q12809); test: Inhibition of human ERG at 1 uM
Sequence of hERG (KCNH2) (Q12809 whole entry): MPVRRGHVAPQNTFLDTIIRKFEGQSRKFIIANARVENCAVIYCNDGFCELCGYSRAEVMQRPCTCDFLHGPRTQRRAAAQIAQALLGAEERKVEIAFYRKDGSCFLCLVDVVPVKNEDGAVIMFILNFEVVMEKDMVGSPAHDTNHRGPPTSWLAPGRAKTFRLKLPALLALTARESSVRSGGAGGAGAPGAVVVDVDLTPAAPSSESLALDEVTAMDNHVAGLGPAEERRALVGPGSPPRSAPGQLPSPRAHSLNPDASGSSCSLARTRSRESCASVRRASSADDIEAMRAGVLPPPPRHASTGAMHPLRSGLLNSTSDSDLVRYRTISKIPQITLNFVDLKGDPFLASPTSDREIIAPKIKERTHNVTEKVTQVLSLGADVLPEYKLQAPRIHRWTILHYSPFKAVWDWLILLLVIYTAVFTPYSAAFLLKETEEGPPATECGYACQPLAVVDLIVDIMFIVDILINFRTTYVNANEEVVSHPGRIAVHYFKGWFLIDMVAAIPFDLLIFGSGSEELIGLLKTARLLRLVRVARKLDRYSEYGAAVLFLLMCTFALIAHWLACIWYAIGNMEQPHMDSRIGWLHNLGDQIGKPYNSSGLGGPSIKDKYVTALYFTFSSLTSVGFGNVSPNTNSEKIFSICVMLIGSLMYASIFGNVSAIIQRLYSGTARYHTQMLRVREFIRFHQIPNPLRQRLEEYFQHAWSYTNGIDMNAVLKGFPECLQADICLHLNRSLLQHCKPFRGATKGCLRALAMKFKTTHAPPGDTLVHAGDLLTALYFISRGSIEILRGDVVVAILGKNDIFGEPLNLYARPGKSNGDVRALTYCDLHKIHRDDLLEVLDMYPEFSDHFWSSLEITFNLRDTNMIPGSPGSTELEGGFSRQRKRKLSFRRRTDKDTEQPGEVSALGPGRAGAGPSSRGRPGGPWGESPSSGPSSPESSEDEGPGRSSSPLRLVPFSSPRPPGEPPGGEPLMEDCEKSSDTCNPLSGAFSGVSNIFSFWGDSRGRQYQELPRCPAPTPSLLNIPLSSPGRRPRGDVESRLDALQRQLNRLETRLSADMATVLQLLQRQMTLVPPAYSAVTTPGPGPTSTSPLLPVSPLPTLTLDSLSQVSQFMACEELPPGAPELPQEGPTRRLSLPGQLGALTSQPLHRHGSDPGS

[3] = target: Voltage-gated inwardly rectifying potassium channel KCNH2 (Homo sapiens, UniProt Q12809); test: Inhibition of human ERG by patch clamp method
Sequence of Voltage-gated inwardly rectifying potassium channel KCNH2 (Q12809 whole entry): as above

[4] = target: T1, Glucocorticoid receptor
Description: Binding affinity to human glucocorticoid receptor by fluorescence polarization competitive binding assay

[5] = target: T1, Glucocorticoid receptor; test: Agonist activity at glucocorticoid receptor in human fibroblast assessed as inhibition of IL-1-beta-induced IL6 production treated 1 hr before IL1-beta challenge measured after 24 hrs by transrepression assay; type: functional
[6] = target: Sigma non-opioid intracellular receptor 1 (Homo sapiens) (UniProt Q99720); test: Inhibition of sigma 1 receptor at 1 uM
Sequence of Sigma non-opioid intracellular receptor 1 (Homo sapiens) (Q99720 whole entry): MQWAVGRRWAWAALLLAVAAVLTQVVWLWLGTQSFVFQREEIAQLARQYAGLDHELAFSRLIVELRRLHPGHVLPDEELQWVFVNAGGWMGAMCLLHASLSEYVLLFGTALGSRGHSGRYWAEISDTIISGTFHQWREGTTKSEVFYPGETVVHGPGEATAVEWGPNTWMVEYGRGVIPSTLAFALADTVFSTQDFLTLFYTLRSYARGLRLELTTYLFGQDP

[7] = target: D(1A) dopamine receptor (Homo sapiens) (UniProt P21728); test: Inhibition of dopamine D1 receptor at 1 uM
Sequence of D(1A) dopamine receptor (Homo sapiens) (P21728 whole entry): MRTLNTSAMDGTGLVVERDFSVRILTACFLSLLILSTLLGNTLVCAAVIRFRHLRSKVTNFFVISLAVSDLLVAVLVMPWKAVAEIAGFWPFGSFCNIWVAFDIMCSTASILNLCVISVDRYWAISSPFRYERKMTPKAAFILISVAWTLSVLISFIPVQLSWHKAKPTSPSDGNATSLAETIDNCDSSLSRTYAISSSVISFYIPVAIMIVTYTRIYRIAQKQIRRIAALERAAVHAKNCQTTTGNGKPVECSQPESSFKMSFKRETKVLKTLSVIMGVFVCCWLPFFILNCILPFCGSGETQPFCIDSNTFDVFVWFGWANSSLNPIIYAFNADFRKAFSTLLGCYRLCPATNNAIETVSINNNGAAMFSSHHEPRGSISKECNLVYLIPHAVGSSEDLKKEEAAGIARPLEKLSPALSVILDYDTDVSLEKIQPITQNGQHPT

[8] = target: Prostaglandin E2 receptor EP4 subtype (Homo sapiens) (UniProt P35408); test: Inhibition of prostanoid EP4 receptor at 1 uM
Sequence of Prostaglandin E2 receptor EP4 subtype (Homo sapiens) (P35408 whole entry): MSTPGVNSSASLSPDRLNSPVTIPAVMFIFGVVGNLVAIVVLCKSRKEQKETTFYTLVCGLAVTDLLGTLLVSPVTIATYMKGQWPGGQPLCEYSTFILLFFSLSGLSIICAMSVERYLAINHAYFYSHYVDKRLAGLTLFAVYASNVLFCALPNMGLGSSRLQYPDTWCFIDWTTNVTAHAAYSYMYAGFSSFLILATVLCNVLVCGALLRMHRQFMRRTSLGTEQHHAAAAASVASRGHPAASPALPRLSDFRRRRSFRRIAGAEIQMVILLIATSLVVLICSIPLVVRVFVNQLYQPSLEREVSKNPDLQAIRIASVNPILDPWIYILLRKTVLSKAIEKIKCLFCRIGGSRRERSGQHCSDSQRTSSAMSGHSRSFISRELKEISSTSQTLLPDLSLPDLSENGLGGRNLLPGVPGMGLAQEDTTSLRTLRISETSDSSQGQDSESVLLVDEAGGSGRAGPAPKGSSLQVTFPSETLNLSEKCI

[9] = target: T2, Alpha-1B adrenergic receptor (Homo sapiens) (UniProt P35368); test: Inhibition of adrenergic Alpha-1B receptor at 1 uM
T2 sequence (whole entry): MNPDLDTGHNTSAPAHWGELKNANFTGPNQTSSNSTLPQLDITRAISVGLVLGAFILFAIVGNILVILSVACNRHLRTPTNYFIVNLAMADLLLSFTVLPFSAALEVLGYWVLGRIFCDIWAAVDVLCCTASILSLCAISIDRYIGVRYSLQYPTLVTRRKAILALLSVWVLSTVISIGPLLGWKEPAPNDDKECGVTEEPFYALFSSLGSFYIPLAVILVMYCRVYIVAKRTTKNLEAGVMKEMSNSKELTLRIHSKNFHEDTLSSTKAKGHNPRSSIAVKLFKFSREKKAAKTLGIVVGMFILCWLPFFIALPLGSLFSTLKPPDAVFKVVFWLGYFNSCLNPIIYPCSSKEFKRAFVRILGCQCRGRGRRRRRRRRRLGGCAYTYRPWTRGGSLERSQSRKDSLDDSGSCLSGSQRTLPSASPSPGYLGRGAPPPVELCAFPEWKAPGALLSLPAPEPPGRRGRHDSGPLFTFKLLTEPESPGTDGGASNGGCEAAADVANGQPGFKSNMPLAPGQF

[10] = target: T3, Muscarinic acetylcholine receptor M2 (Homo sapiens) (UniProt P08172); test: Inhibition of muscarinic M2 receptor at 1 uM
T3 sequence (whole entry): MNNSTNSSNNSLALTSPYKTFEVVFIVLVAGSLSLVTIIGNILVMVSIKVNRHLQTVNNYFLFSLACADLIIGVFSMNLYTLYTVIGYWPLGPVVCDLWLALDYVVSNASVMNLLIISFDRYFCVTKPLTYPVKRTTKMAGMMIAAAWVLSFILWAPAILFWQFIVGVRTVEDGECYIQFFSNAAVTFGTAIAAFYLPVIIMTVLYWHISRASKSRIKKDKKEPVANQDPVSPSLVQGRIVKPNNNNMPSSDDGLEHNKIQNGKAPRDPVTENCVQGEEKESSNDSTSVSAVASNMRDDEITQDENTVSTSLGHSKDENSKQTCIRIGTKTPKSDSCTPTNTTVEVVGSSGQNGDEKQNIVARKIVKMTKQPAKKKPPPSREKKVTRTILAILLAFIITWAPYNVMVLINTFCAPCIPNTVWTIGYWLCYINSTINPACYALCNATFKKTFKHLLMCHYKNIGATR

[11] = target: Mu-type opioid receptor (Homo sapiens) (UniProt P35372); test: Inhibition of mu opioid receptor at 1 uM
Sequence of Mu-type opioid receptor (Homo sapiens) (P35372 whole entry): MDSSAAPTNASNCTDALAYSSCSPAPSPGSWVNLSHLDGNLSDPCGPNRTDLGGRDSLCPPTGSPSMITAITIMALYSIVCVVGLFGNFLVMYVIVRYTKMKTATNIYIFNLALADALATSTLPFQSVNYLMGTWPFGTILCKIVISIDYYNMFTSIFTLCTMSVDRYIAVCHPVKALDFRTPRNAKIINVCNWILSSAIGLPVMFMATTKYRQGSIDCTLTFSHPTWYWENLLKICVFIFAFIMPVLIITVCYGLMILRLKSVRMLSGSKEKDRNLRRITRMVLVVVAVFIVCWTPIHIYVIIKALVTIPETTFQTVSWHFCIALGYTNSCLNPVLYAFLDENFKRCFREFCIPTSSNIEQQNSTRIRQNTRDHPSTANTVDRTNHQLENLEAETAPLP

[12] = Inhibition of calcium channel L type dihydropyridine binding site at 1 uM
[13] = target: Sodium-dependent noradrenaline transporter (Homo sapiens) (UniProt P23975); test: Inhibition of norepinephrine transporter at 1 uM
[14] = Inhibition of GABAA receptor agonist site at 1 uM; type: functional
[15] = target: Beta-1 adrenergic receptor (Homo sapiens) (UniProt P08588); test: Inhibition of adrenergic beta-1 receptor at 1 uM
[16] = Inhibition of central benzodiazepine receptor at 1 uM
[17] = target: D(2) dopamine receptor (Homo sapiens) (UniProt P14416); test: Inhibition of dopamine D2S receptor at 1 uM
Sequence of D(2) dopamine receptor (Homo sapiens) (P14416 whole entry): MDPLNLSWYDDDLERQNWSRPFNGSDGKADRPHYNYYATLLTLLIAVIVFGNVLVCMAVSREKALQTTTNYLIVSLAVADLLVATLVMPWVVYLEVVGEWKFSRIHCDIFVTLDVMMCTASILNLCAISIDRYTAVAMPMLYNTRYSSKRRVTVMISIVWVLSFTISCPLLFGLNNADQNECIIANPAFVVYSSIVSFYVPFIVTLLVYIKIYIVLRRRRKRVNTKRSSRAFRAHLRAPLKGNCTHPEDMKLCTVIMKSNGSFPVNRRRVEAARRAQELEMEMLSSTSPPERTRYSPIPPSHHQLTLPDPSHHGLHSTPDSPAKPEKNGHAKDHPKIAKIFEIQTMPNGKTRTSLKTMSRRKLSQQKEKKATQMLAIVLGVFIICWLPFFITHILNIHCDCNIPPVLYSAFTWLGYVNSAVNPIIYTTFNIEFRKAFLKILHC

[18] = Inhibition of rolipram binding site at 1 uM
[19] = Inhibition of phencyclidine receptor at 1 uM
[20] = target: T4, Adenosine receptor A1 (Homo sapiens) (UniProt P30542); test: Inhibition of adenosine A1 receptor at 1 uM
T4 sequence (whole entry): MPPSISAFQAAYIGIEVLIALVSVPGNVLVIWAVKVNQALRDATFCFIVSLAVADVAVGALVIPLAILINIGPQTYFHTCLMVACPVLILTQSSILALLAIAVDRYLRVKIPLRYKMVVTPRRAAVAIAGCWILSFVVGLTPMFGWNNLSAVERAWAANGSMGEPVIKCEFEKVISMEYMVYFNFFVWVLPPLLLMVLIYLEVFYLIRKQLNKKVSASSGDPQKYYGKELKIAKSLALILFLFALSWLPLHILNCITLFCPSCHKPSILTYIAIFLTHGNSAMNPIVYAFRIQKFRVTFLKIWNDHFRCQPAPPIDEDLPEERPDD

[21] = Inhibition of NMDA receptor at 1 uM
[22] = Inhibition of central imidazoline I2 receptor at 1 uM
[23] = Inhibition of nicotinic bungarotoxin-sensitive acetylcholine receptor at 1 uM
[24] = Inhibition of sigma 2 receptor at 1 uM
[25] = Selectivity for human glucocorticoid receptor over ERbeta
[26] = target: Muscarinic acetylcholine receptor M3 (Homo sapiens) (UniProt P20309); test: Inhibition of muscarinic M3 receptor at 1 uM
Sequence of Muscarinic acetylcholine receptor M3 (Homo sapiens) (P20309 whole entry, looked up): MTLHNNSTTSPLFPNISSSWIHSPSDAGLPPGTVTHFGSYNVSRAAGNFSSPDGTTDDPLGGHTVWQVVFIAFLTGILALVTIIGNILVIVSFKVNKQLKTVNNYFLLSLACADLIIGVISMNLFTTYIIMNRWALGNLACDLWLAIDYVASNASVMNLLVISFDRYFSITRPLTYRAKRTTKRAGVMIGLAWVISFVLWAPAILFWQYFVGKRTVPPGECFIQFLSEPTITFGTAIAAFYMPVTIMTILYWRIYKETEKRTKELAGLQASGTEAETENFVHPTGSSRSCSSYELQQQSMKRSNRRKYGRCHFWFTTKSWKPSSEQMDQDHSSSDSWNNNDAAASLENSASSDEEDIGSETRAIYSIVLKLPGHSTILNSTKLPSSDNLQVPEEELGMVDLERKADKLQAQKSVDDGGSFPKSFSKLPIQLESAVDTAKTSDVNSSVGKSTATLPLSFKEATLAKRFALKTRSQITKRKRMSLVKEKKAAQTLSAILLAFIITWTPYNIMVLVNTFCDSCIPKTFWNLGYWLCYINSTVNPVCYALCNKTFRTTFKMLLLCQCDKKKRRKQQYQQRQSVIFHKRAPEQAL

[27] = target: Histamine H1 receptor (Homo sapiens) (UniProt P35367); test: Inhibition of histamine H1 receptor at 1 uM
[28] = target: Adenosine receptor A2a (Homo sapiens) (UniProt P29274); test: Inhibition of adenosine A2A receptor at 1 uM
[29] = Inhibition of phorbol ester site of PKC at 1 uM
[30] = Selectivity for human glucocorticoid receptor over androgen receptor
[31] = target: T5, Alpha-2A adrenergic receptor (Homo sapiens) (UniProt P08913); test: Inhibition of adrenergic alpha2A receptor at 1 uM
T5 sequence (whole entry): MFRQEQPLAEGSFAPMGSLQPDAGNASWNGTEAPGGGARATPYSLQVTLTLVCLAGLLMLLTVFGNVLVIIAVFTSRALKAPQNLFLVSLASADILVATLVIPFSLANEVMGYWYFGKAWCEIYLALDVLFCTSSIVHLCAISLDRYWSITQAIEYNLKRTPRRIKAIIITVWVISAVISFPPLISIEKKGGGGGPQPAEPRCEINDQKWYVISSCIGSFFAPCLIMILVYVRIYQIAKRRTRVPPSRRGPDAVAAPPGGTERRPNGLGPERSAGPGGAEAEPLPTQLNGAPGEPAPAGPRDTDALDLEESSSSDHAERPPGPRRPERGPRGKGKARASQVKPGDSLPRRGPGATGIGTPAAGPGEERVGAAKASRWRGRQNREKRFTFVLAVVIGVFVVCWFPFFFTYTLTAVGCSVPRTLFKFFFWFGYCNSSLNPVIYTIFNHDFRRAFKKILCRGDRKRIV

[32] = Inhibition of sodium channel site 2 at 1 uM
[33] = Selectivity for human glucocorticoid receptor over ERalpha
[34] = Inhibition of ATP-sensitive potassium channel at 1 uM
[35] = Selectivity for human glucocorticoid receptor over progesterone receptor
[36] = target: T6, Alpha-1A adrenergic receptor (Homo sapiens) (UniProt P35348); test: Inhibition of adrenergic alpha1A receptor at 1 uM
T6 sequence (whole entry): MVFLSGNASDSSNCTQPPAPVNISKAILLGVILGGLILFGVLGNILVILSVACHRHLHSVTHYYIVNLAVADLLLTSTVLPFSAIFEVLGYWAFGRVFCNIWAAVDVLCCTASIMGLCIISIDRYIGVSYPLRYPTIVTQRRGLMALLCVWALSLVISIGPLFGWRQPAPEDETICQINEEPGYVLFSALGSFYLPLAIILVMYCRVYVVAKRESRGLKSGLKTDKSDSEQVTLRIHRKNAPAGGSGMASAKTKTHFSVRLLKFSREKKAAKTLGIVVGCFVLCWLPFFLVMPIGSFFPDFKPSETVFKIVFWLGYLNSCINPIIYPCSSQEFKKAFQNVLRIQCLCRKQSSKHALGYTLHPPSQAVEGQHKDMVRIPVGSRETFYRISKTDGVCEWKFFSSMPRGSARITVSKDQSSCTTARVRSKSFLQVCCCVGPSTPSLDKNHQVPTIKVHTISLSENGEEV

[37] = Inhibition of nicotinic acetylcholine receptor at 1 uM
[38] = target: Beta-2 adrenergic receptor (Homo sapiens) (UniProt P07550); test: Inhibition of adrenergic beta2 receptor at 1 uM

EC50 ([1]; mda-kb2): Not Active
IC50 [4]: 54 nM
EC50 [5]: 112 nM
SMILES: N#Cc1cc(C(O)(c2ccc3c(cnn3-c3ccc(F)cc3)c2)C(F)(F)F)ccc1F (single isomer, unassigned; (-)) [listing 1 of 2 here]
inhibition at 1 µM [2]: < 50%
IC50 [3]: > 10000 nM

inhibition [6]: < 50%
inhibition [7]: < 50%
inhibition [8]: < 50%
inhibition [9]: < 50%
inhibition [10]: < 50%
inhibition [11]: < 50%
inhibition [12]: < 50%
inhibition [13]: < 50%
inhibition [14]: < 50%
inhibition [15]: < 50%
inhibition [16]: < 50%
inhibition [17]: < 50%
inhibition [18]: < 50%
inhibition [19]: < 50%
inhibition [20]: < 50%
inhibition [21]: < 50%
inhibition [22]: < 50%
inhibition [24]: < 50%
Ratio [25]: > 1000
inhibition [26]: < 50%
inhibition [27]: < 50%
inhibition [28]: < 50%
inhibition [29]: < 50%
Ratio [30]: > 1000
inhibition [31]: < 50%
inhibition [32]: < 50%
Ratio [33]: > 1000
inhibition [34]: < 50%
Ratio [35]: > 1000
inhibition [36]: < 50%
inhibition [37]: < 50%
inhibition [38]: < 50%
SMILES: N#Cc1cc(C(O)(c2ccc3c(cnn3-c3ccc(F)cc3)c2)C(F)(F)F)ccc1F (single isomer, unassigned; (-)) [listing 2 of 2 here]
inhibition [23]: < 50%

SMILES: OC(c1ccc(F)c(Cl)c1)(c1ccc2c(cnn2-c2ccc(F)cc2)c1)C(F)(F)F (single isomer, unassigned; (-)) [1-(3-CHLORO-4-FLUOROPHENYL)-2,2,2-TRIFLUORO-1-(1-(4-FLUOROPHENYL)-1H-INDAZOL-5-YL)ETHANOL (ENANTIOMERIC MIX)]
EC50 ([1]; read-out: EC50): 1100 nM
IC50 [4]: 49 nM
EC50 [5]: 93 nM
